The molecules below were run against HPK1 (Homo sapiens (Human), UniProt Q92918) (assay: HPK1 biochemical enzyme assay (microfluidic mobility shift assay)). Conditions: 1.5 nM HPK1, ATP 1 mM final, 30 min preincubation, 60 min at RT, Caliper EZ Reader; read-out: HPK1 1000UMATP caliper IC50.
Description: HPK1 biochemical enzyme assay: HPK1 enzyme inhibition was measured using a microfluidic mobility shift assay. […] Test compounds were titrated in ten point curves (top final assay concentration 3 μM), and preincubated with enzyme/substrate mix for 30 min prior to initiation of the reaction by addition of ATP (1 mM final concentration) and substrate (1 μM final concentration; Carna Biosciences) diluted in assay buffer supplemented by MgCl2 (final assay concentration of 5 mM). Following 60 min incubation at RT, the reaction was terminated by addition of 60 µl/well termination buffer (Carna Biosciences) and signal determination using aCaliper EZ Reader (Perkin Elmer, UK).
The compound numbers correspond to the compound numbers in Table 1.

Chain of HPK1 (Q92918 whole entry): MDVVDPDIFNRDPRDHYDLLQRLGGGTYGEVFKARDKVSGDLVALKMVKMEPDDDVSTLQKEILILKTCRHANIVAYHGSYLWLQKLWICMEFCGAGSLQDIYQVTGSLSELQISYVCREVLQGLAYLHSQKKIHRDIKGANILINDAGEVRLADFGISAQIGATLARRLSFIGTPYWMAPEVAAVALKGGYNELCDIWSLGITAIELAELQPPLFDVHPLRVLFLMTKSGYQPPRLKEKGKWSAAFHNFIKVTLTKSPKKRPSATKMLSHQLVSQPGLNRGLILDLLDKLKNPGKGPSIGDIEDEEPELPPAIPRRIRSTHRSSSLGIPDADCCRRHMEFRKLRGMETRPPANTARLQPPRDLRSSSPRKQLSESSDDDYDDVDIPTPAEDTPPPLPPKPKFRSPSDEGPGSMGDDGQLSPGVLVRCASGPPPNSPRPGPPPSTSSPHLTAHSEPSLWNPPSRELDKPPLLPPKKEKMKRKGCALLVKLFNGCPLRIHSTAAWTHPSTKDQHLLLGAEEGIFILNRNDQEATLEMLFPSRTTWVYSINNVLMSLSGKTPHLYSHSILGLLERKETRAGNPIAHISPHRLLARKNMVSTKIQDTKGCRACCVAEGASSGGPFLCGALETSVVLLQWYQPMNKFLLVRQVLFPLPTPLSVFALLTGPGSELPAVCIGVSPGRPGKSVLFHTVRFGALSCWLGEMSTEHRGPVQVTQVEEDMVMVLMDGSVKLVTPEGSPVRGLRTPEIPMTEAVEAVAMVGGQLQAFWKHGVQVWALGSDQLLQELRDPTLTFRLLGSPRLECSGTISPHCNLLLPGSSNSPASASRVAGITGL

How did the IC50 turn out when `CC(C)N(C)Cc1nc(Nc2ccc(-c3cnc4cc(F)ccn34)c3c2C(=O)NC3)ccc1C1CCOC1` (stereo in doubt) [I-730, (R)-4-(7-fluoroimidazo [1,2-a]pyridin-3-yl)-7-((6-((isopropyl(methyl)amino)methyl)-5-(tetrahydrofuran-3-yl)pyridin-2-yl)amino)isoin-dolin-1-one] was run?
The IC50 was under 100 nM.

With `O=C1NCc2c(-c3ccnn4ccnc34)ncc(Nc3ccc(N4CCC(O)CC4)cn3)c21` [I-565, 7-((5-(4-hydroxypiperidin-1-yl)pyridin-2-yl)amino)-4-(imidazo[1,2-b]pyridazin-8-yl)-2,3-dihydro-1H-pyrrolo[3,4-c]pyridin-1-one] as the molecule, how does the IC50 read?
Its IC50 is over 1000 nM.

Which IC50 does the source give for `CN1CCC(O)(c2ccc(Nc3ccc(-c4ccnc5c4ccn5C)c4c3C(=O)NC4)nc2)CC1` [I-274, 7-((5-(4-hydroxy-1-methylpiperidin-4-yl)pyridin-2-yl)amino)-4-(1-methyl-1H-pyrrolo[2,3-b]pyridin-4-yl)isoindolin-1-one] here?
Its IC50 is under 100 nM.

Which IC50 does the source give for `Cn1ccc2c(-c3ncc(Nc4cccc(N5CC[C@@H](N6CCCC6)C5)n4)c4c3CNC4=O)ccnc21` [I-431, (R)-7-((6-([1,3-bipyrrolidin]-1-yl)pyridin-2-yl)amino)-1-(1-methyl-1H-pyrrolo[2,3-b]pyridin-4-yl)-2,3-dihydro-1H-pyrrolo[3,4-c]pyridin-1-one] here?
Its IC50 is under 100 nM.

Which IC50 does the source give for `CN1CCC(C)(c2cccc(Nc3cnc(-c4ccnc5c4ccn5C)c4c3C(=O)NC4)n2)CC1` [I-575, 7-((6-(l,4-dimethyl-piperidin-4-yl)pyridin-2-yl)amino)-4-(1-methyl-1H-pyrrolo[2,3-b]pyridin-4-yl)-2,3-dihydro-1H-pyrrolo[3,4-c]pyridin-1-one] here?
Its IC50 is 100 to 1000 nM.

Which IC50 does the source give for “(R)-7-((6- ((dimethylamino)- methyl)-5-(2- (methoxymeth- yl)morpholino )pyridin-2- yl)amino)-4-(7- fluoroimidazo [1,2-a]pyridin- 3-yl)isoindolin- 1-one [I-711]” here?
Its IC50 is under 100 nM.

Which IC50 does the source give for `O=C1NCc2c(-c3cnc4cc(F)ccn34)ncc(Nc3ccc(N4CCC(O)CC4)cn3)c21` [I-167, 4-(7-fluoroimidazo [1,2-a]pyridin-3-yl)-7-[[5-(4-hydroxy-1-piperidyl)-2-pyridyl]amino]-2,3-dihydropyrrolo [3,4-c]pyridin-1-one] here?
The IC50 was under 100 nM.

For `O=C1NCc2c(-c3cnc4cc(F)ccn34)ccc(Nc3ccc(N4C[C@H]5CC[C@@H](C4)C5O)cn3)c21` (stereo partly drawn) [I-404, 4-(7-fluoroimidazo [1,2-a]pyridin-3-yl)-7-((5-((1R,5S)-8-hydroxy-3-azabicyclo [3,2.1]octan-3-yl)pyridin-2-yl)amino)isoin-dolin-1-one], which IC50 is on record?
Its IC50 is under 100 nM.

Which IC50 does the source give for `CO[C@]1(CN(C)C)CCCN(c2ccc(Nc3ccc(-c4cnc5cc(F)ccn45)c4c3C(=O)NC4)nc2)C1` [I-612, (S)-7-((5-(3-((dimethylamino)-methyl)-3-methoxy-piperidin-1-yl)pyridin-2-yl)amino)-4-(7-fluoroimidazo [1,2-a]pyridin-3-yl)isoindolin-1-one] here?
The IC50 was under 100 nM.

For `Cn1ccc2c(-c3ncc(Nc4ccc(C5(O)CCOCC5)cn4)c4c3CNC4=O)ccnc21` [I-427], which IC50 is on record?
Its IC50 is under 100 nM.

`CN1CC[C@H](c2ccc(Nc3ccc(-c4cnc5cc(F)ccn45)c4c3C(=O)NC4)nc2)C1=O` [I-336, (R)-4-(7-fluoroimidazo [1,2-a]pyridin-3-yl)-7-((5-(1-methyl-2-oxopyrrolidin-3-yl)pyridin-2-yl)amino)isoin-dolin-1-one] was tested. Which IC50 did it give?
The IC50 was under 100 nM.

For `CN1CCN(c2cccc(Nc3ccc(-c4cnc5cc(Cl)ccn45)c4c3C(=O)NC4)n2)CC1` [I-236, 4-(7-chloroimidazo [1,2-a]pyridin-3-yl)-7-[[6-(4-methylpiperazin-1-yl)-2-pyridyl]amino] isoindolin-1-one], which IC50 is on record?
The IC50 was under 100 nM.

With `CN(Cc1nc(Nc2ccc(-c3cnc4cc(F)ccn34)c3c2C(=O)NC3)ccc1[C@H]1CCOC1)CC(F)F` (single isomer, unassigned) [I-748] as the molecule, how does the IC50 read?
The IC50 was under 100 nM.

How did the IC50 turn out when `Cn1ccc2c(-c3ccc(Nc4ccc(N5CCC[C@@H](O)C5)cn4)c4c3CNC4=O)ccnc21` [I-121, 7-[[5-[(3R)-3-hydroxy-1-piperidyl]-2-pyridyl]amino]-4-(1-methylpyrrolo [2,3-b]pyridin-4-yl)isoindolin-1-one] was run?
Its IC50 is under 100 nM.

How did the IC50 turn out when `COCC1CN(c2ccc(Nc3ccc(-c4ncnc5c4ccn5C)c4c3C(=O)NC4)nc2)CCO1` (stereo in doubt) [I-650, (S)-7-((5-(2-(methoxymeth-yl)morpho-lino)pyridin-2-yl)amino)-4-(7-methyl-7H-pyrrolo[2,3-d|pyrimidin-4-yl)isoindolin-1-one] was run?
Its IC50 is under 100 nM.

Which IC50 does the source give for `O=C1NCc2c(-c3cnn4ccccc34)ncc(Nc3ccc(N4CCC(O)CC4)cn3)c21` [I-464, 7-[[5-(4-hydroxy-1-piperidyl)-2-pyridyl]amino] 4-pyrazolo[1,5-a]pyridin-3-yl-2,3-dihydropyrrolo [3,4-c]pyridin-l-one] here?
The IC50 was under 100 nM.

`C[C@H](c1nc(Nc2ccc(-c3cnc4cc(F)ccn34)c3c2C(=O)NC3)ccc1[C@H]1CCOC1)N(C)C` [I-817, 7-((6-((R)-1-(dimethylami-no)ethyl)-5-((R)-THF-3-yl)pyridin-2-yl)amino)-4-(7-fluoroimidazo [1,2-a]pyridin-3-yl)isoindolin-1-one] was tested. Which IC50 did it give?
Its IC50 is under 100 nM.

How did the IC50 turn out when `Cn1nccc2c(-c3ccc(Nc4ccc(N5CCC(O)CC5)cn4)c4c3CNC4=O)cnc1-2` [I-375, 7-((5-(4-hydroxy-piperidin-1-yl)pyridin-2-yl)amino)-4-(1-methyl-1H-pyrrolo[2,3-c]pyridazin-5-yl)isoindolin-1-one] was run?
Its IC50 is over 1000 nM.

With `CN(C)CCN1CCC(c2ccc(Nc3cnc(-c4ccnc5c4ccn5C)c4c3C(=O)NC4)nc2)CC1=O` (stereo not drawn) [I-386, 7-((5-(1-(2-(dimethylami-no)ethyl)-2-oxopiperidin-4-yl)pyridin-2-yl)amino)-4-(1-methyl-1H-pyrrolo[2,3-b]pyridin-4-yl)-2,3-dihydro-1H-pyrrolo[3,4-c]pyridin-1-one] as the molecule, how does the IC50 read?
The IC50 was under 100 nM.

For `O=C1NCc2c(-c3cnc4cc(CN5CC(F)C5)ccn34)ccc(Nc3ccc(N4CCC(O)CC4)cn3)c21` [I-378, 4-(7-((3-fluoroazetidin-1-yl)methyl)imidazo[1,2-a]pyridin-3-yl)-7-((5-(4-hydroxy-piperidin-1-yl)pyridin-2-yl)amino)isoin-dolin-1-one], which IC50 is on record?
Its IC50 is 100 to 1000 nM.

For `Cn1ccc2c(-c3ncc(Nc4ccc([C@@H]5CCOC5)c(CN5CC[C@@H](O)C5)n4)c4c3CNC4=O)ccnc21` [I-809, 7-((6-(((R)-3-hydroxypyrroli-din-1-yl)methyl)-5-((S)-THF-3-yl)pyridin-2-yl)amino)-4-(1-methyl-1H-pyrrolo[2,3-b]pyridin-4-yl)-2,3-dihydro-1H-pyrrolo[3,4-c]pyridin-1-one], which IC50 is on record?
Its IC50 is under 100 nM.

How did the IC50 turn out when `CN(C)Cc1nc(Nc2ccc(-c3cnc4cc(F)ccn34)c3c2C(=O)NC3)ccc1[C@@H]1CCCOC1` [I-551] was run?
Its IC50 is under 100 nM.

`O=C1NCc2c(-c3cnc4cc(F)ccn34)ccc(Nc3ccc(C4CCOC4)c(CO)n3)c21` (stereo not drawn) [I-771, 4-(7-fluoroimidazo [1,2-a]pyridin-3-yl)-7-((6-(hydroxymeth-yl]-5-(tetrahydrofuran-3-yl)pyridin-2-yl)amino)isoin-dolin-1-one] was tested. Which IC50 did it give?
Its IC50 is under 100 nM.

Which IC50 does the source give for `CN(C)Cc1nc(Nc2ccc(-c3cnc4cc(F)ccn34)c3c2C(=O)NC3)ccc1N1CCOC[C@@H](O)C1` (single isomer, unassigned) [I-820] here?
The IC50 was under 100 nM.

— US11021481B2, “Substituted isoindolin-1-ones and 2,3-dihydro-1h-pyrrolo[3,4-c]pyridin-1-ones as HPK1 antagonists” (Nimbus Saturn, Inc., priority 2019, dated 2021)
